Here are results for eight compounds from publication PMC11428279, “Exploring Structure–Activity Relationships and Modes of Action of Laterocidine” (ACS Central Science, 2024).

Data set [1] has as its system Gram-negative strains of P. aeruginosa, A. baumannii, K. pneumoniae, and E. cloacae. The data set is classed as cell-based. As for the experimental part:
(§1) MICs for laterocidine and its various analogues were determined by broth microdilution[49] for the following polymyxin-susceptible ATCC and clinical isolates: P. aeruginosa FADDI-PA022, FADDI-PA001, FADDI-PA025, FADDI-PA070, FADDI-PA060; A. baumannii FADDI-AB134, FADDI-AB034, FADDI-AB030, FADDI-AB174, FADDI-AB241; K. pneumoniae FADDI-KP032, FADDI-KP022, BM1, FADDI-KP065, FADDI-KP064, FADDI-KP003; and E. cloacae FADDI-EC001, FADDI-EC003, and FADDI-EC006. Experiments were performed with cation-adjusted Mueller–Hinton broth (CAMHB) in 96-well polystyrene microtiter plates. Wells were inoculated with 100 μL of bacterial suspension prepared in CAMHB (containing ∼10^6 CFU/mL) and 100 μL of CAMHB containing increasing concentrations of polymyxins (0–32 μg/mL). MIC measurements were performed in duplicate, with the MIC being the lowest concentration at which visible growth was inhibited following 18–20 h of incubation at 37 °C. Bacterial killing kinetics was investigated over 24 h as described previously.[50]

For data set [2], the system named is P. aeruginosa PAO1. Kind of data set: MIC. The data set is classed as cell-based. The settings on record: polymyxin-susceptible reference strain.
In data set [3] the test system is P. aeruginosa PAO1R. Kind of data set: MIC. The data set is classed as cell-based. The following applies: polymyxin-resistant paired strain of PAO1.
The subject of data set [4] is A. baumannii 5075 (wild type). Description: MIC. The data set is classed as cell-based.
In data set [5] the test system is A. baumannii 5075R. The data set is classed as cell-based. The following applies: lipid A modified with phosphoethanolamine.
The test system of data set [6] is A. baumannii 5075D. The format is cell-based. The settings on record: lacks lipid A in the outer membrane.
The subject of data set [7] is P. aeruginosa PAO1R. Kind of data set: Static time-kill study. The format is cell-based. The following applies: 8 × MIC, over 24 h. As for the experimental part: as §1
Data set [8] concerns P. aeruginosa PAO1. Kind of data set: Static time-kill study. The format is cell-based. The settings on record: 8 × MIC, over 24 h. As for the experimental part: as §1
The subject of data set [9] is female Swiss mice. Kind of data set: Acute toxicity in mice (maximum tolerable dose). The data set is classed as in vivo. The following applies: intravenous bolus via lateral tail vein, free base, N = 3. As for the experimental part:
(§2) All animal studies were approved by the Monash University Animal Ethics Committee and involved female Swiss mice (22–28 g, 7-week-old) housed in microisolators within a PC2 animal laboratory. Mice were kept under a 12/12 h dark/light cycle at 20–24 °C and 50–70% ambient humidity.
For the acute toxicity studies, peptide 11 and laterocidine solutions were prepared in 0.9% saline and stored at 4 °C before use. All mice were administered an intravenous bolus of one peptide (mg/kg free base) via a lateral tail vein (≤0.1 mL). Following the injection, mice were released back into their respective home cages and individually monitored for 24 h for signs of clinical toxicity. Mice displaying any signs of toxicity were humanely euthanized according to the recommended Euthanasia/Humane Experimental End point Criteria.

For data set [10], the system named is P. aeruginosa FADDI-PA070. Description: Neutropenic murine bloodstream infection model. The settings on record: for Bacteria load in blood: 8 mg/kg iv (free base) 2 h postinoculation, neutropenic mice, 4 h time point, N = 3, mean. The data set is classed as in vivo, P. aeruginosa in mice. As for the experimental part: as §2
The neutropenic bloodstream infection model was undertaken as previously described.[39] Mice were rendered neutropenic through intraperitoneal injections of cyclophosphamide administered 4 days (150 mg/kg) and 1 day (100 mg/kg) prior to inoculation. Bloodstream infection was established by administering a 50 μL bolus of early log-phase bacterial suspension (4 × 10^8 CFU/mL). Laterocidine, peptide 11, and polymyxin B solutions were prepared in sterile saline at a concentration of 1 mg/mL (free base). Two hours postinoculation, mice (n = 3) were injected intravenously with either polymyxin B at 4 mg/kg (free base), peptide 11 at 8 mg/kg (free base), laterocidine at 8 mg/kg (free base), or saline (control mice). Blood was collected immediately after (0 h) and 4 h after drug administration, serially diluted with sterile saline, and appropriately diluted samples manually plated on nutrient agar prior to overnight incubation at 37 °C. Colonies were counted manually and the bacterial load (log10 CFU/mL) in the blood of each mouse calculated. In vivo efficacy was calculated as the difference between the log10 CFU/mL blood values of treated and control mice 4 h postdosing (Δlog10 CFU/mL blood = log10 [treated] CFU/mL blood–log10[control] CFU/mL blood).[54]

For data set [11], the system named is A. baumannii. The format is cell-based. The settings on record: for fold increase in MIC (loss of activity) against A. baumannii: compared with native laterocidine. As for the experimental part: as §1
For data set [12], the system named is P. aeruginosa. The data set is classed as cell-based. The following applies: compared with native laterocidine. As for the experimental part:
as §1

Data set [13] deals with E. cloacae. The format is cell-based. The settings on record: compared with native laterocidine. As for the experimental part: as §1
The subject of data set [14] is K. pneumoniae. The data set is classed as cell-based. As for the experimental part: as §1
Data set [15] has as its system human kidney proximal tubular (HK-2) cells. Kind of data set: Viability of human kidney proximal tubular cells. The format is cell-based. The settings on record: 24 h of treatment, fluorescence microscopy, mean ± SD, n = 3. The text has this:
The fluorescence microscopy method used to culture HK-2 cells and the use of fluorescence microscopy to determine the percent cell viability (%) following peptide treatment are the same as published previously.[59],[60]

Each structure is given as a SMILES string. Values after ≈ are worked out from the molar mass of the structure shown. Where two headings read alike, the source gives them in different places. Bridge positions count the residues as written; N and C are the ends. Square brackets hold non-standard residues; d marks the D form. Peptide text beside a SMILES is read from it. * marks the point of attachment. dOrn = NCCC[C@@H](N)C(=O)O; Nonanoyl = CCCCCCCCC(=O)*; X2 = O=C(c1ccc(Cl)cc1Cl)*; Orn = NCCC[C@H](N)C(=O)O

In the case of `CCCCCCCCC(=O)N[C@H](CO)C(=O)N[C@H](Cc1ccc(O)cc1)C(=O)N[C@H](Cc1c[nH]c2ccccc12)C(=O)N[C@H](CCCN)C(=O)N[C@@H](CCCN)C(=O)NCC(=O)N[C@H](CCCN)C(=O)N[C@@H](Cc1c[nH]c2ccccc12)C(=O)N[C@@H]1C(=O)N[C@@H]([C@@H](C)CC)C(=O)N[C@@H](CC(N)=O)C(=O)NCC(=O)NCC(=O)O[C@@H]1C` [Peptide 11] (Nonanoyl-[dS][dY][dW][dOrn][Orn]G[dOrn]WTINGG; ester 9-C), the “MICs against all tested strains (range)” value in [1] (all tested Gram-negative strains) is given as “identical MICs to laterocidine”. Also, in data set [2], the “MIC, P. aeruginosa PAO1” value was found to be 2 µg/mL (≈ 1.25 µM). The “MIC, P. aeruginosa PAO1R” value in data set [3] is 2 µg/mL (≈ 1.25 µM). Also, the “MIC, A. baumannii 5075 S” value in data set [4] was determined as 8 µg/mL (≈ 4.98 µM). Further, the “MIC, A. baumannii 5075 R” value in [5] stood at 32 µg/mL (≈ 19.9 µM). In addition, the “MIC, A. baumannii 5075 D” value in data set [6] amounted to 32 µg/mL (≈ 19.9 µM). Further, the “time-kill outcome against P. aeruginosa PAO1R” value is given as “completely inhibiting the growth” in data set [7] and “no viable bacteria were detected at 24 h” in [7] (listed as peptide 11). Besides, the “time-kill outcome against P. aeruginosa PAO1” value in data set [8] was “substantial bacterial regrowth nevertheless occurred at all concentrations”. Besides, the “maximum tolerable dose (MTD), Iv (Bolus)” value in data set [9] was found to be 13.2 mg/kg. In addition, the entries for the “Bacteria load in blood” value in data set [10] and in data set [10] (listed as peptide 11) were 2.70% and 2.7%, respectively. In addition, in data set [10] (murine bloodstream infection model, 8 mg/kg), the “fold increase in antimicrobial activity compared to native laterocidine (peptide 1)” value was 8 fold.
On to `CC[C@H](C)[C@@H]1NC(=O)[C@@H](NC(=O)[C@H](Cc2c[nH]c3ccccc23)NC(=O)[C@@H](CCCN)NC(=O)CNC(=O)[C@H](CCCN)NC(=O)[C@@H](CCCN)NC(=O)[C@@H](Cc2c[nH]c3ccccc23)NC(=O)[C@@H](Cc2ccc(O)cc2)NC(=O)[C@@H](CO)NC(=O)c2ccc(Cl)cc2Cl)[C@@H](C)OC(=O)CNC(=O)CNC(=O)[C@H](CC(N)=O)NC1=O` [Peptide 12] (X2-[dS][dY][dW][dOrn][Orn]G[dOrn]WTINGG; ester 9-C), for which, in [11], the “fold increase in MIC (loss of activity) against A. baumannii” value was 4–8 fold.
Turning to `CCCCCCCCC(=O)N[C@H](CO)C(=O)N[C@H](Cc1ccc(O)cc1)C(=O)N[C@H](Cc1c[nH]c2ccccc12)C(=O)N[C@H](CCCN)C(=O)N[C@@H](CCCN)C(=O)NCC(=O)N[C@H](CCCN)C(=O)N[C@@H](Cc1c[nH]c2ccccc12)C(=O)N[C@H]1COC(=O)CNC(=O)CNC(=O)[C@H](CC(N)=O)NC(=O)[C@H]([C@@H](C)CC)NC1=O` [Peptide 15] (Nonanoyl-[dS][dY][dW][dOrn][Orn]G[dOrn]WSINGG; ester 9-C), in [11], the “MICs against A. baumannii (range over strains)” value is 8 to 32 µg/mL and the “fold increase in MIC (loss of activity) against A. baumannii” value is 2–8 fold. Also, the “fold less activity against the two MDR strains of P. aeruginosa” value in data set [12] was 8–16 fold.
Take `CCCCCCCCC(=O)N[C@H](CO)C(=O)N[C@H](Cc1ccc(O)cc1)C(=O)N[C@H](Cc1c[nH]c2ccccc12)C(=O)N[C@H](CCCN)C(=O)N[C@@H](CCCN)C(=O)NCC(=O)N[C@H](CCCN)C(=O)N[C@@H](Cc1c[nH]c2ccccc12)C(=O)N[C@@H]1C(=O)N[C@@H]([C@@H](C)CC)C(=O)N[C@@H](CC(N)=O)C(=O)NCC(=O)N[C@@H](C)C(=O)O[C@@H]1C` [Peptide 24] (Nonanoyl-[dS][dY][dW][dOrn][Orn]G[dOrn]WTINGA; ester 9-C): the “fold increase in MIC for two E. cloacae strains” value in data set [13] amounted to 2 fold. For the same compound, the “fold increase in MIC (loss of activity) against all strains / all species” value in data set [1] (compared with native laterocidine) is listed as “no more than 1 fold”.
As to `CCCCCCCCC(=O)N[C@H](CO)C(=O)N[C@H](Cc1ccc(O)cc1)C(=O)N[C@H](C)C(=O)N[C@H](CCCN)C(=O)N[C@@H](CCCN)C(=O)NCC(=O)N[C@H](CCCN)C(=O)N[C@@H](Cc1c[nH]c2ccccc12)C(=O)N[C@@H]1C(=O)N[C@@H]([C@@H](C)CC)C(=O)N[C@@H](CC(N)=O)C(=O)NCC(=O)NCC(=O)O[C@@H]1C` [Peptide 33] (Nonanoyl-[dS][dY][dA][dOrn][Orn]G[dOrn]WTINGG; ester 9-C), the “MICs against A. baumannii (range over strains)” value in [11] (summary of Tables 1 and 2) was over 32 µg/mL.
With `CCCCCCCCC(=O)N[C@H](CO)C(=O)N[C@H](C)C(=O)N[C@H](Cc1c[nH]c2ccccc12)C(=O)N[C@H](CCCN)C(=O)N[C@@H](CCCN)C(=O)NCC(=O)N[C@H](CCCN)C(=O)N[C@@H](Cc1c[nH]c2ccccc12)C(=O)N[C@@H]1C(=O)N[C@@H]([C@@H](C)CC)C(=O)N[C@@H](CC(N)=O)C(=O)NCC(=O)NCC(=O)O[C@@H]1C` [Peptide 34] (Nonanoyl-[dS][dA][dW][dOrn][Orn]G[dOrn]WTINGG; ester 9-C), in [11], the “MICs against A. baumannii (range over strains)” value was at least 32 µg/mL.
Consider `CCCCCCCCC(=O)N[C@H](C)C(=O)N[C@H](Cc1ccc(O)cc1)C(=O)N[C@H](Cc1c[nH]c2ccccc12)C(=O)N[C@H](CCCN)C(=O)N[C@@H](CCCN)C(=O)NCC(=O)N[C@H](CCCN)C(=O)N[C@@H](Cc1c[nH]c2ccccc12)C(=O)N[C@@H]1C(=O)N[C@@H]([C@@H](C)CC)C(=O)N[C@@H](CC(N)=O)C(=O)NCC(=O)NCC(=O)O[C@@H]1C` [Peptide 35] (Nonanoyl-[dA][dY][dW][dOrn][Orn]G[dOrn]WTINGG; ester 9-C), for which, in data set [11], the “MICs against A. baumannii (range over strains)” value was at least 32 µg/mL. Also, the “MICs against K. pneumoniae (range over strains)” value in data set [14] was in the range of 2 to 32 µg/mL.
`CC[C@H](C)CCCCC(=O)N[C@@H](CCN)C(=O)N[C@H](C(=O)N[C@@H](CCN)C(=O)N[C@H]1CCNC(=O)[C@H]([C@@H](C)O)NC(=O)[C@H](CCN)NC(=O)[C@H](CCN)NC(=O)[C@H](CC(C)C)NC(=O)[C@@H](Cc2ccccc2)NC(=O)[C@H](CCN)NC1=O)[C@@H](C)O` [polymyxin B, reference compound] (HELM PEPTIDE1{[CC[C@H](C)CCCCC(=O)[*:2]].[Dab].T.[Dab].[Dab].[Dab].[dF].L.[Dab].[Dab].T}$PEPTIDE1,PEPTIDE1,5:R3-11:R2$$$V2.0; N-terminus assumed; bridges inferred): the “MIC, P. aeruginosa PAO1” value in data set [2] came out at 0.5 µg/mL (≈ 0.415 µM). In data set [3], the “MIC, P. aeruginosa PAO1R” value is 16 µg/mL (≈ 13.3 µM). Also, the “time-kill outcome against P. aeruginosa PAO1R” value in data set [7] is reported as “no viable bacteria detected at 8 × MIC on multiple occasions, including at 24 h”. For the same compound, in data set [8], the “time-kill outcome against P. aeruginosa PAO1” value was “no viable bacteria were detected at 1 h, rapid and significant regrowth subsequently occurred”. Further, the “cell viability of HK-2 cells” value in [15] (0.01 mM) turned out to be 74.8 ± 2.6%; in [15] (0.1 mM) it was 6.4 ± 3.6%. Further, in data set [9], the “maximum tolerable dose (MTD), Iv (Bolus)” value turned out to be 5 mg/kg.
